# Measured values published in US6268362A, “Amino anthracyclinone derivatives and their use in the treatment of amyloidosis” (Pharmacia & Upjohn SpA, priority 1998, dated 2001).
# Molecular target: T1, Aβ1-40 peptide (Homo sapiens, UniProt P05067)
# T1 construct: An Aβ1-40 peptide monomer stock solution was prepared by dissolving the peptide in dimethylsulfoxide
# Test: Inhibition of aggregation of monomeric Aβ1-40 peptide stimulated by a seed of pre-formed sonicated Aβ1-40 amyloid fibrils (HPLC of residual monomer)
# Format: biochemical
# Settings: 20 μM Aβ1-40 monomer, 50 μM test compound, 4 μM pre-formed sonicated Aβ1-40 fibrils, 2 h at 37° C., pH 7.4
# Method: The compounds disclosed in the present invention interfere with the aggregation of monomeric Aβ1-40 peptide stimulated by a seed of Aβ1-40 amyloid fibrils. The activity of the compounds was assessed according to the procedure reported below.
# An Aβ1-40 peptide monomer stock solution was prepared by dissolving the peptide in dimethylsulfoxide at a concentration of 33.33 mg/ml. The stock solution was further diluted 11.5 times with dimethylsulfoxide. This solution was then diluted with 10 mM phosphate buffer pH 7.4 containing 150 mM sodium chloride to prepare the test solution. To an eppendorf tube containing 47 μl of Aβ1-40 peptide monomer solution were added 3 μl of a 830 μM water solution of the test compound containing 66.4 μM, based on the Aβ1-40 monomer content, of pre-formed sonicated Aβ1-40 fibrils: the resulting solution was 20 μM in Aβ1-40 monomer, 50 μM in the test compound and contained 4 μM, based on the Aβ1-40 monomer content, of pre-formed sonicated Aβ1-40 fibrils. The aggregation was allowed to proceed for two hours at 37° C. The suspension was then centrifuged at 15000 rpm for 15 minutes at +4° C., the supernatant was collected and the Aβ1-40 monomer was quantitated by HPLC. The activity is expressed as the percent of inhibition of the aggregation of a 20 μM Aβ1-40 monomer solution stimulated by 4 μM, based on the Aβ1-40 monomer content, pre-formed sonicated Aβ1-40 fibrils.
# T1 sequence (P05067 672-711 limits assumed): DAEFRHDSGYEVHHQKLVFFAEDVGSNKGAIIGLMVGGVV
row,% inhibition [%],Structure (SMILES)
1,11.4,"COc1cccc2c1C(=O)c1c(O)c3c(c(O)c1C2=O)CC(O)(C(=O)CN1CCOCC1)CC3 (stereo not shown) [Compound A17, 7-deoxy-14-(4-morpholinyl)-daunomycinone, reference compound]"
2,47.3,"COc1cccc2c1C(=O)c1c(O)c3c(c(O)c1C2=O)CC(O)(C(O)CN1CC=CCC1)CC3 [Compound 1d, (13R)-7-deoxy-13-dihvdro-14-(1,2,3,6-tetrahydropyridin-1-yl)daunomycinone]"
3,52.1,"COc1cccc2c1C(=O)c1c(O)c3c(c(O)c1C2=O)CC(O)(C(=O)CN1CC=CCC1)CC3N1CCOCC1 (stereo not shown) [Compound 1k, 7-deoxy-7-(4-morpholinyl) -14-(1,2,3,6-tetrahydropyridin-1-yl)daunomycinone]"
4,74.1,"COc1cccc2c1C(=O)c1c(O)c3c(c(O)c1C2=O)CC(O)(C(=O)CN1CC=CCC1)CC3O (stereo not shown) [Compound 1a, 14-(1,2,3,6-tetrahydropyridin-1-yl)daunomycinone]"
